Laboratory results: patent US20040241840A1, “Compositions for therapy” (priority 2001, published 2004)
Structures can show the parent of a compound that is named as a salt. Marks after values point to notes of the source that are not given here.

Key:
[1] = biological target: T1, low affinity glucocorticoid binding site (LAGS) (Rattus norvegicus, UniProt P70580); assay: competition analysis with 5×10^−8M [3H]dexamethasone for binding to the LAGS; conditions: for IC50: read-out: IC50% (concentration of unlabelled competitor reducing specific binding of radiolabelled dexamethasone to the LAGS to 50% of control); for competition with dexamethasone for binding to the LAGS (in words): 4° for 8 hours, FIG. 2
Method: Washed liver microsomes (100,000 g pellet) were prepared after canulating the portal vein of a rat and perfusing blood from the liver using ice-cooled hanks buffer.
Data were analysed using standard methods.
Potential competitors were added from ethanol stocks such that the final ethanol concentration in the assay was less than 1% (v/v). Specific binding was determined using conventional methods as described above.
Free ligand was removed using dextran-charcoal. […] Competitors were added from ethanol stocks such that final ethanol concentration in the assay was less than 1% (v/v).

[2] = tested on: T6 cells (rat hepatic stellate cell line); assay: proliferation of T6 cells (cell count); format: cell-based; conditions: re-treated at 24 hours, counted at 48 hours
Method: (§1) However, when rat and human HSCs were treated with ligands of LAGS, the proliferation and activation of the HSCs was inhibited. In addition, T6 cells (rat hepatic stellate cell line) were seeded at low density in 6 well plates in DMEM supplemented with 4% (v/v) FCS. The T6 cells were re-treated at 24 hours and counted at 48 hours. Human hepatic stellate cells were treated at days 2, 5, 7, 9 and 12 of culture and counted on day 15 of culture. Control cells were treated identically with 0.1% (v/v) ethanol used to prepare steroid stocks.

rat and human HSCs = assay: proliferation of rat and human HSCs, results in words; format: cell-based
Method: (§2) Rat hepatic stellate cells (HSCs) were isolated by pronase/collagenase perfusion and purified by isopycnic density centrifugation in Opti-prep™ (Nycomed) and elutriation (Wright et al (2001) Gastroenterology 121(3): 685-698). Human HSCs were isolated from discarded resected liver via a similar protocol. The use of human liver tissue for scientific investigation was approved by the UK South and West Local Research Ethics Commitee and was subject to patient consent.
(§3) HSCs were cultured in Dulbecco's modified Eagle Medium (DMEM) containing 4.5 g/l of glucose, supplemented with 16% (v/v) fetal calf serum, 80 u/ml penicillin, 80 μg/ml streptomycin and 32 μg/ml gentamycin. Cells were seeded onto plastic culture dishes and incubated at 37° C. in an humidified incubator gassed with 5% CO2 in air. The culture medium was renewed after the first day and thereafter every 3-4 days.
as §1

[3] = tested on: rats administered CCl4 (liver fibrosis); assay: CCl4 liver fibrosis rat in vivo model; conditions: PCN once weekly during CCl4 twice weekly for 6 weeks
Method: Rats were administered CCl4 twice weekly for 6 weeks to cause liver fibrosis and administered PCN once weekly during CCl4 treatment.

glucocorticoid receptor = biological target: T2, glucocorticoid receptor (Rattus norvegicus, UniProt P06536); assay: specific binding of 10 nM [3H]dexamethasone in rat liver cytosol
T2 construct: from tissue; host or cells: rat liver cytosol
T2 sequence (P06536 1-795): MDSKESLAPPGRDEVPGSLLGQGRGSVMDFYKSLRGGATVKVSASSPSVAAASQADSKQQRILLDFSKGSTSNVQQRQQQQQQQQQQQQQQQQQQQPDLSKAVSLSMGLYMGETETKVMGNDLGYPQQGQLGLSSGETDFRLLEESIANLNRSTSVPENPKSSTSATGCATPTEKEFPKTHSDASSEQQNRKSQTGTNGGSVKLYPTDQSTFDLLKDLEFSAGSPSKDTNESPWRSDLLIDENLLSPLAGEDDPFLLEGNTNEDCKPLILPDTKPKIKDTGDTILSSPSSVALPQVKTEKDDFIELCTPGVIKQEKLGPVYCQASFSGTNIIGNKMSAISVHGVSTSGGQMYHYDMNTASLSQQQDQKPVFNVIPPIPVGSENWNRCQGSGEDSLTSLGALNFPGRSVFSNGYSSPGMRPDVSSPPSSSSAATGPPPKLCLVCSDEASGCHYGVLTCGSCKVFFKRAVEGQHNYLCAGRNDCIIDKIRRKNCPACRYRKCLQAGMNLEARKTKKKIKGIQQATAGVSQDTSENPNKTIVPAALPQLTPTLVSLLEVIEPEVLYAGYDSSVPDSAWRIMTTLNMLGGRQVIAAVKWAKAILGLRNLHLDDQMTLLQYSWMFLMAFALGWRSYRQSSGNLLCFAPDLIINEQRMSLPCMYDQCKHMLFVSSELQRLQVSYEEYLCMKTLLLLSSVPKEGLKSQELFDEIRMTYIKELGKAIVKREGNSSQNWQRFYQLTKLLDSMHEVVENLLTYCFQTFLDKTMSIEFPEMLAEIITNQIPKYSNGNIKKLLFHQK

[4] = biological target: T1, low affinity glucocorticoid binding site (LAGS); assay: specific binding of 10 nM [3H]dexamethasone in rat liver microsomes; conditions: read-out: % specific binding compared to dexamethasone alone, microsomes
human HSCs = assay: proliferation of human hepatic stellate cells (cell count); format: cell-based; conditions: treated at days 2, 5, 7, 9 and 12, counted on day 15
Method: as §2, §3
However, when rat and human HSCs were treated with ligands of LAGS, the proliferation and activation of the HSCs was inhibited. In addition, T6 cells (rat hepatic stellate cell line) were seeded at low density in 6 well plates in DMEM supplemented with 4% (v/v) FCS. The T6 cells were re-treated at 24 hours and counted at 48 hours. Human hepatic stellate cells were treated at days 2, 5, 7, 9 and 12 of culture and counted on day 15 of culture. […]

[5] = tested on: α-smooth muscle actin expression in human HSCs; assay: α-smooth muscle actin expression in cultured human hepatic stellate cells (Western blotting); format: cell-based; conditions: human HSCs cultured for 15 days, FIG. 3
Method: The effect of LAGS ligands on activation to the pro-fibrogenic phenotype was investigated by measuring the effect of LAGS ligands on expression of α-smooth muscle actin in cultured human hepatic stellate cells. […] Whole cell extracts (10 μg protein/lane) were probed for alpha-smooth muscle actin and GFAP (glial fibrillary acidic protein—loading control) protein expression by Western blotting. Scanned blots were quantitated using Phoretix software (Nonlinear Dynamics, Newcastle, UK).

[6] = biological target: T1, low affinity glucocorticoid binding site (LAGS); conditions: 1 μM; Wright & Paine (1995); cited from earlier work

T1 sequence (P70580 2-195): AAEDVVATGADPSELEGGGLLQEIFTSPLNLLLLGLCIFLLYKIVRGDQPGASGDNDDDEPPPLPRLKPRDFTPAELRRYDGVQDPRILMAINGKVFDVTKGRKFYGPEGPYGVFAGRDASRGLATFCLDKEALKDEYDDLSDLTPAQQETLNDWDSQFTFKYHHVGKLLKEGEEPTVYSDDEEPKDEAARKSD

In the case of `CC(=NOCC(=O)O)[C@H]1CC[C@H]2[C@@H]3CCC4=C[C@@H](O)CC[C@]4(C)[C@H]3CC[C@]12C` [4 pregnene-3β-ol-20-one carboxymethyloxime], the IC50 [1] is reported as over 100 µM.
Work on `CC(=O)[C@H]1CC[C@H]2[C@@H]3C[C@@H](O)C4=CC(=O)CC[C@]4(C)[C@H]3CC[C@]12C` [6α-hydroxyprogesterone] yielded an IC50 [1] of 5 µM.
In the case of `CC(=O)O[C@@H]1C[C@H]2[C@@H]3CC[C@H](C(C)=O)[C@@]3(C)CC[C@@H]2[C@@]2(C)CCC(=O)C=C12` [6β-progesterone acetate], the IC50 [1] is reported as 0.5 µM.
With `CC(=O)[C@H]1CC[C@H]2[C@@H]3CCC4=CC(=O)CC[C@]4(C)[C@H]3[C@H](O)C[C@]12C` [11α-hydroxyprogesterone] the IC50 [1] was 0.1 µM.
`CC(=O)O[C@@H]1C[C@]2(C)[C@@H](C(C)=O)CC[C@H]2[C@@H]2CCC3=CC(=O)CC[C@]3(C)[C@H]21` [11α-progesterone acetate] showed an IC50 [1] of 0.1 µM.
With `CC(=O)[C@H]1CC[C@H]2[C@@H]3CCC4=CC(=O)CC[C@]4(C)[C@H]3[C@@H](OS(=O)(=O)c3ccc(C)cc3)C[C@]12C` [11β-progesterone tosylate] the IC50 [1] was 10 µM.
With `CC1CC2C3CCC4=CC(=O)C=CC4(C)C3(F)C(O)CC2(C)C1(O)C(=O)O` (stereo not drawn) [17β-carboxylic acid derivative, 9α-fluoro 16α-methyl-11β,17α-dihydroxy-1,4-pregn-3-one 17-carboxylic acid] the IC50 [1] was 100 µM.
In the case of `CC(=O)[C@H]1[C@H](C#N)C[C@H]2[C@@H]3CC=C4C[C@@H](O)CC[C@]4(C)[C@H]3CC[C@@]21C` [PCN, pregnenolone 16-alpha carbonitrile], the “competition with dexamethasone for binding to the LAGS (in words)” value (from here on “competition with dexamethasone”) [1] is reported as “compete with dexamethasone for binding to the LAGS”, the “% proliferation versus control (100%), T6 cells” value ([2]; 10 μM) is reported as 55 +/− 17% and the “effect on cell proliferation (in words)” value (rat and human HSCs) is reported as “inhibited in their ability to proliferate”. The “Sirius red staining (collagens) in liver” value [3] was “significantly reduced”, the “blinded histological scoring of H&E stained liver sections, CCl4 versus CCl4/PCN treated rats” value [3] was “no significant difference” and the “liver serum (AST) enzyme levels, CCl4 versus CCl4/PCN treated rats” value [3] was “no significant difference”. The “number of cells and extent of α-smooth muscle actin staining in livers” value [3] was “significantly reduced”.
In the case of `CC#C[C@]1(O)CC[C@H]2[C@@H]3CCC4=CC(=O)CCC4=C3[C@@H](c3ccc(N(C)C)cc3)C[C@@]21C` [RU486], the “% specific binding compared to dexamethasone alone, cytosol” value (glucocorticoid receptor; 10 μM RU486, mean and SD of 3 samples) is reported as 0* % and the activity at 10 µM [4] is reported as 123%.
With `CO[C@H]1C[C@H](O[C@H]2[C@H](C)[C@@H](O[C@@H]3O[C@H](C)C[C@H](N(C)C)[C@H]3OC(C)=O)[C@@H](C)C[C@@]3(CO3)C(=O)[C@H](C)[C@@H](OC(C)=O)[C@@H](C)[C@@H](C)OC(=O)[C@@H]2C)O[C@@H](C)[C@@H]1OC(C)=O` [TAO, troleandomycin] the “% proliferation versus control (100%), T6 cells” value ([2]; 100 μM) was 106 +/− 2.8%.
In the case of `Clc1ccccc1C(c1ccccc1)(c1ccccc1)n1ccnc1` [clotrimazole], the “competition with dexamethasone” value [1] is reported as “compete with dexamethasone for binding to the LAGS”, the “% proliferation versus control (100%), T6 cells” value ([2]; 5 μM) is reported as 18 +/− 4.7% and the “% proliferation versus control (100%), human HSCs” value (human HSCs; 5 μM) is reported as 25 +/− 13%. For the same compound, the “effect on cell proliferation (in words)” value (rat and human HSCs) was “inhibited in their ability to proliferate” and the “expression of α-smooth muscle actin (in words)” value (“expression” for short) ([5]; 1 μM clotrimazole) was “inhibited expression of α-smooth muscle actin”.
`C[C@@H]1C[C@H]2[C@@H]3CCC4=CC(=O)C=C[C@]4(C)[C@@]3(F)[C@@H](O)C[C@]2(C)[C@@]1(O)C(=O)COS(C)(=O)=O` [dexamethasone mesylate] gave an IC50 [1] of 10 µM.
With `C[C@@H]1C[C@H]2[C@@H]3CCC4=CC(=O)C=C[C@]4(C)[C@@]3(F)[C@@H](O)C[C@]2(C)[C@@]1(O)C(=O)CO` [dexamethasone] the “effect on cell proliferation (in words)” value (rat and human HSCs) was “no effect”.
For `CC(C)(C(=O)c1cccnc1)c1cccnc1` [metyrapone], the “% specific binding compared to dexamethasone alone, cytosol” value (glucocorticoid receptor; metyrapone, concentration not given, mean and SD of 3 samples) was 105 +/− 4.0%, the “competition with dexamethasone” value [1] was “compete with dexamethasone for binding to the LAGS” and the “% proliferation versus control (100%), T6 cells” value ([2]; 500 μM) was 52 +/− 5.7%. For the same compound, the “% proliferation versus control (100%), human HSCs” value (human HSCs; 500 μM) was 76 +/− 18%, the “effect on cell proliferation (in words)” value (rat and human HSCs) was “inhibited in their ability to proliferate” and the “expression” value ([5]; 200 μM metyrapone) was “inhibited expression of α-smooth muscle actin”.
With `CCC1(c2ccccc2)C(=O)NC(=O)NC1=O` [phenobarbitone] the “competition with dexamethasone” value [1] was “compete with dexamethasone for binding to the LAGS”.
In the case of `CC(=O)C1CCC2C3CCC4=CC(=O)CCC4(C)C3CCC12C` (stereo not shown) [progesterone], the “competition with dexamethasone” value [1] is reported as “compete with dexamethasone for binding to the LAGS” and the “effect on cell proliferation (in words)” value (rat and human HSCs) is reported as “no effect”.
Compound betamethasonenone has an IC50 [1] of 5 µM.
biotinylated dexamethasone gave an IC50 [1] of over 100 µM.
In the case of oestradiol, the “expression” value ([5]; 1 μM oestradiol) is given as “inhibited expression of α-smooth muscle actin” and the “binding to the LAGS (in words)” value [6] is given as “a ligand for the LAGS at this concentration”.
